In patent publication US20180116993A1, “MODULATORS OF FARNESOID X RECEPTOR AND METHODS FOR THE USE THEREOF” (XIAMEN UNIVERSITY, priority 2015, published 2018):
Where two headings read alike, the source gives them in different places. Marks after values point to notes of the source that are not given here.

Experiments:
[1] = biological target: T1, FXR ligand binding domain (LBD) (Homo sapiens, UniProt Q96RI1); assay: AlphaScreen assay: FXR LBD recruitment of coregulator peptide motifs (SRC2-3, SRC1-2); type: biochemical
T1 construct: made in house
T1 sequence (Q96RI1 262-486 limits assumed): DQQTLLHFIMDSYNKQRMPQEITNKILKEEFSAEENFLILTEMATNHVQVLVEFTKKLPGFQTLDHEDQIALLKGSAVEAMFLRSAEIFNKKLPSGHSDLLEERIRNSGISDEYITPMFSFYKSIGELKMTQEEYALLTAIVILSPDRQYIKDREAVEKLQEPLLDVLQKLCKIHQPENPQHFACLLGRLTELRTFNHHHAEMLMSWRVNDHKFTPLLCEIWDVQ
Description: In search of novel ligands for FXR, we used FXR ligand binding domain (LBD) as a bait to screen chemical libraries based on AlphaScreen biochemical assay, which determines the efficacy of small molecules in influencing binding affinity of FXR with coregulator peptides (see e.g., Jin et al., (2013) Nature communications 4, 1937).
The binding of the cofactor peptide motifs to FXR ligand binding domain (LBD) in response to ligands was determined by AlphaScreen assays using a hexahistidine detection kit from Perkins-Elmer. The FXR LBD protein was purified as described previously (see e.g., Jin et al., (2013) Nature communications 4, 1937). The experiments were conducted with approximately 20-40 nM receptor LBD and 20 nM biotinylated cofactor peptides in the presence of 5 μg/ml donor and acceptor beads in a buffer containing 50 mM MOPS, 50 mM NaF, 0.05 mM CHAPS, and 0.1 mg/ml bovine serum albumin, all adjusted to a pH of 7.4.

full-length FXR = biological target: T2, full-length FXR (Homo sapiens, UniProt Q96RI1); assay: Cell-based FXR transactivation, EcRE luciferase reporter in COS-7 cells; conditions: for fold induction at 5 µM / Cell-based FXR transactivation Fold changes by 5 μM compound: 5 μM compound; for fold induction at 5 µM / EC50: EcRE luciferase reporter; for Cell-based FXR transactivation Fold changes by 5 μM compound: positive: induction, minus: repression
T2 construct: The cells were co-transfected with plasmids encoding full-length FXR and the cognate luciferase reporter EcRE-Luc; expressed in transfected cells; host or cells: COS-7
T2 sequence (Q96RI1 1-486): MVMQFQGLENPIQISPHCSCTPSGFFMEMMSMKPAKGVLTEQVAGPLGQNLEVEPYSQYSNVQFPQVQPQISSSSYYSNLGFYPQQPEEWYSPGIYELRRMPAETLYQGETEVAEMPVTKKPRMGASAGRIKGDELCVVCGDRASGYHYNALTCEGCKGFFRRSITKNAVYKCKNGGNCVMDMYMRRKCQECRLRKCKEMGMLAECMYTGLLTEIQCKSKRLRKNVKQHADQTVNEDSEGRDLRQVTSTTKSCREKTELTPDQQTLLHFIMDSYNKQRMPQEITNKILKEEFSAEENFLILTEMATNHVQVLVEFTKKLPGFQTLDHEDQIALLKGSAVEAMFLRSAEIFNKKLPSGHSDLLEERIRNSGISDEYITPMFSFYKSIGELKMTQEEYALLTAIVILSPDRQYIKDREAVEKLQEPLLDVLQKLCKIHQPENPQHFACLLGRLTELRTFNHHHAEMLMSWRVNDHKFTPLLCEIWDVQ
Description: COS-7 cells were cotransfected with plasmids encoding full length FXR.
For transient transfection assay, COS-7 cells were maintained in DMEM containing 10% fetal bovine serum and were transiently transfected using Lipofectamine 2000 (Invitrogen). Before 24 h of transfection, 24-well plates were plated. The cells were co-transfected with plasmids encoding full-length FXR and the cognate luciferase reporter EcRE-Luc. Ligands were added 5 hours after transfection. Cells were harvested 24 hours later for the luciferase assays according to the manufacturer's instructions (Dual-Luciferase® Reporter Assay System, Promega). Luciferase activities were normalized to renilla activity co-transfected as an internal control.

db/db mice = assay: Hepatic triglyceride, liver histology, serum ALT and ALP in high-fat diet fed db/db mice; type: in vivo, mouse; conditions: for Serum ALP (U/L): vehicle 129 ± 15
Description: Liver tissues fixed in 4% paraformaldehyde in example 5 were performed for H&E staining by standard procedures. Liver tissues fixed in 4% paraformaldehyde were embedded in optimum cutting temperature compound (OCT), and cryosectioned. Frozen liver sections were stained with 0.3% oil red O according to standard procedures.
The triglyceride levels in liver tissues from mice treated with compounds were analyzed using Tissue triglyceride assay kit (Applygen, Beijing, China).
Alkaline Phosphatase (ALP) is a marker of cholestasis. Cholestasis can be suspected when there is an elevation of ALP enzymes. In fact, greater than 90% of patients with bile stasis will have an elevated alkaline phosphatase. […] The aminotransferase is used to evaluate the presence of hepatitis and may be elevated in cholestasis or with common bile duct obstruction. In this example, 8-10 week age db/db mice were fed with high-fat diet and treated with 10 mg/kg of compounds once daily for 10 days as in Example 5. The activities of serum ALP and ALT were analyzed using ALP kit and ALT kit, respectively (Nanjing Jiancheng Engineering Institute, China).

[2] = system: human hepatoma HepG2 cells; assay: MTT cell viability assay, HepG2; type: cell-based; conditions: 48 h, read-out: Cell viability as a percentage of the cells treated with DMSO, HepG2
Text: (§1) The MTT assay is a colorimetric assay for assessing cell metabolic activity. It is widely used in high-throughput screening of antitumor drugs due to its high sensitivity and economical features. In this example, MTT was used to detect the inhibitory effects of compounds on various cancer cell lines. Cancer cells including human colorectal adenocarcinoma HCT15 cells, RA-resistant human colon cancer HCT116 cells, human cervical carcinoma Hela cells, human hepatoma HepG2 cells and human breast cancer MCF7 cells were cultured in DMEM medium containing 10% fetal bovine serum. 20 uM or 40 uM of compounds were administered to treat cells, cell viability is detected by MTT assay and expressed as a percentage of the cells treated with DMSO (Table 4).

[3] = system: human colorectal adenocarcinoma HCT15 cells; assay: MTT cell viability assay, HCT15; type: cell-based; conditions: 48 h, read-out: Cell viability as a percentage of the cells treated with DMSO, HCT15; for viability at 20 µM: HCT-15, 20 uM; for viability at 40 µM: HCT-15, 40 uM
Text: as §1

[4] = system: human breast cancer MCF7 cells; assay: MTT cell viability assay, MCF-7; type: cell-based; conditions: 48 h, read-out: Cell viability as a percentage of the cells treated with DMSO, MCF-7
Text: as §1

[5] = system: RA-resistant human colon cancer HCT116 cells; assay: MTT cell viability assay, HCT116; type: cell-based; conditions: 48 h, read-out: Cell viability as a percentage of the cells treated with DMSO, HCT116; for viability at 20 µM: HCT-116, 20 uM; for viability at 40 µM: HCT-116, 40 uM
Text: as §1

[6] = system: human cervical carcinoma Hela cells; assay: MTT cell viability assay, Hela; type: cell-based; conditions: 48 h, read-out: Cell viability as a percentage of the cells treated with DMSO, Hela
Text: as §1

[7] = SRC1-2 peptide, Table 1, read-out: EC50 (μM) of FXR binding by AlphaScreen assay recruit SRC1-2
[8] = SRC2-3 peptide, Table 1, read-out: EC50 (μM) of FXR binding by AlphaScreen assay recruit SRC2-3
[9] = 10 mg/kg once daily for 10 days
[10] = 10 mg/kg once daily for 10 days, vehicle 377 ± 48, Table 17
[11] = SRC1-2 peptide, Table 2, read-out: EC50 (μM) of FXR binding by AlphaScreen assay recruit SRC1-2
[12] = SRC2-3 peptide, Table 2, read-out: EC50 (μM) of FXR binding by AlphaScreen assay recruit SRC2-3

Row | Structure (SMILES) | Cell-based FXR transactivation Fold changes by 5 μM compound (full-length FXR; Table 2) | EC50 (full-length FXR; Table 2) [nM] | viability at 20 µM [2] [%] | viability at 40 µM [2] [%] | viability at 20 µM [3] [%] | viability at 40 µM [3] [%] | viability at 20 µM [4] [%] | viability at 40 µM [4] [%] | viability at 20 µM [5] [%] | viability at 40 µM [5] [%] | viability at 20 µM [6] [%] | viability at 40 µM [6] [%] | EC50 [1, 11] [µM] | EC50 [1, 12] [µM] | other results
1 | Nc1cccc(C(=O)OCC23CC4CC(CC(C4)C2)C3)c1 [Tricyclo-[3.3.1.1^3,7]decane-1-methanol, 1-(3-aminobenzoate)] | – | – | – | – | – | – | – | – | – | – | – | – | – | – | EC50 [1, 7]: < 1 µM; EC50 [1, 8]: < 1 µM; fold induction at 5 µM (full-length FXR; Table 1): > 10; EC50 (full-length FXR; Table 1): < 1000 nM
2 | CC1(C)C2CCC1(C)C(OC(=O)c1ccc([N+](=O)[O-])cc1)C2 (stereo not shown) [XD-14, 1,7,7-trimethyl-bicyclo[2.2.1]-heptan-2-yl 4-nitrobenzoate] | 3 | 1000 to 10000 | 83 | 77 ± 1 | 64 ± 4 | 58 ± 4 | 91 ± 7 | 84 ± 2 | 60 ± 3 | 42 ± 3 | 90 ± 1 | 80 ± 5 | – | – | Serum ALP (U/L) (db/db mice; [9]): 86 ± 20^a U/L; Serum ALT (U/L) (db/db mice; [10]): 62 ± 11^c U/L
3 | Nc1ccc(C(=O)OC2CC3CCC2C3)cc1 (stereo not shown) [XD-22, bicyclo[2.2.1]-heptan-2-yl 4-aminobenzoate] | 3 | > 1000 | 100 ± 3 | 100 ± 8 | 100 ± 4 | 100 ± 4 | 100 ± 2 | 100 ± 1 | 89 ± 1 | 65 ± 4 | 100 ± 2 | 100 ± 4 | 1 to 10 | 1 to 10 | –
4 | Cc1cc(C(=O)OC2CCC3CCCCC3C2)ccc1F (stereo not shown) [XD-34, decahydro-naphthalen-2-yl 4-fluoro-3-methylbenzoate] | 2 | 1000 to 10000 | 100 ± 6 | 88 ± 6 | 100 ± 6 | 100 ± 6 | 100 ± 6 | 99 ± 6 | 98 ± 6 | 94 ± 6 | 98 ± 6 | 97 ± 6 | < 1 | < 1 | Serum ALP (U/L) (db/db mice; [9]): 91 ± 18^a U/L; Serum ALT (U/L) (db/db mice; [10]): 73 ± 20^b U/L
5 | CC1(C)C2CCC1(C)C(OC(=O)C1CCC(N)CC1)C2 (stereo not shown) [XD-21, 1,7,7-trimethyl-bicyclo[2.2.1]-heptan-2-yl 4-aminocyclo-hexane-carboxylate] | 1.5 | – | – | – | – | – | – | – | – | – | – | – | – | – | –
6 | Cc1cc(C(=O)OC2CC3CCC2(C)C3(C)C)ccc1F (stereo not shown) [XD-1, 1,7,7-trimethyl-bicyclo[2.2.1]-heptan-2-yl 4-fluoro-3-methylbenzoate] | 5 | 1000 to 10000 | 100 ± 2 | 62 ± 7 | 93 ± 2 | 42 ± 3 | 100 ± 2 | 65 | 96 ± 2 | 62 ± 3 | 100 ± 5 | 70 ± 3 | 1 to 10 | 1 to 10 | –
7 | O=C(Oc1ccc(O)cc1)C12CC3CC(CC(C3)C1)C2 [Tricyclo-[3.3.1.1^3,7]decane-1-carboxylic acid, 4-hydroxy-phenyl ester] | – | – | – | – | – | – | – | – | – | – | – | – | – | – | EC50 [1, 7]: < 1 µM; EC50 [1, 8]: < 1 µM; fold induction at 5 µM (full-length FXR; Table 1): > 10; EC50 (full-length FXR; Table 1): < 1000 nM
8 | O=C(OC1CCC2CCCCC2C1)c1ccc([N+](=O)[O-])cc1 (stereo not shown) [XD-26, decahydro-naphthalen-2-yl 4-nitrobenzoate] | −2 | < 1000 | 100 ± 2 | 100 ± 2 | 86 ± 2 | 56 ± 2 | 100 ± 2 | 92 ± 2 | 100 ± 2 | 92 ± 2 | 87 | 70 ± 2 | – | – | –
9 | COc1ccc(OC(=O)C23CC4CC(CC(Cl)(C4)C2)C3)cc1 [Tricyclo-[3.3.1.1^3,7]decane-1-carboxylic acid, 3-chloro-, 4-methoxyphenyl ester] | – | – | – | – | – | – | – | – | – | – | – | – | – | – | EC50 [1, 7]: < 1 µM; EC50 [1, 8]: < 1 µM; fold induction at 5 µM (full-length FXR; Table 1): > 10; EC50 (full-length FXR; Table 1): < 1000 nM
10 | COc1cc(C(=O)OC2CC3CCC2(C)C3(C)C)ccc1F (stereo not shown) [XD-3, 1,7,7-trimethyl-bicyclo[2.2.1]-heptan-2-yl 4-fluoro-3-methoxybenzoate] | 5 | 1000 to 10000 | 100 ± 3 | 70 ± 3 | 73 ± 5 | 40 ± 1 | 100 ± 4 | 40 | 80 ± 4 | 41 ± 4 | 100 ± 1 | 66 ± 3 | 1 to 10 | 1 to 10 | Hepatic triglyceride (mM/g) (db/db mice; 10 mg/kg for 10 days, vehicle 148 ± 14): 80 ± 19 ^a mM/g; Serum ALT (U/L) (db/db mice; 10 mg/kg for 10 days, vehicle 377 ± 48, Table 15): 185 ± 29 ^a U/L
11 | O=C(OC1CCCCCCC1)C1CCC(O)CC1 (stereo not shown) [XD-19, cyclooctyl 4-hydroxy-cyclohexane-carboxylate] | 1.5 | – | – | – | – | – | – | – | – | – | – | – | – | – | –
